Laboratory results as given in ChEMBL document CHEMBL1201862, “PubChem BioAssay data set” (2004).
Active and inactive are the calls of the source.

Columns and labels:
[1] = luciferase reporter signal suppression in cells – H4 neuroglioma cells, luminescence, dose response (AID 1990); format: functional, cell-based
[2] = Luminescence Cell-Based Dose Response HTS to Identify Inhibitors of 5'UTR Stem-Loop Driven Prion Protein mRNA Translation in H4 Neuroglioblastoma Cells. [Related pubchem assays: 1827 (Project Summary), 1813 (Primary HTS)]; format: functional
[3] = alpha-synuclein stem-loop luciferase translation blockers – H4 neuroglioma cells, luminescence, confirmation (AID 1988); format: functional, cell-based
[4] = microbe, parasite or virus in culture; format: functional; conditions: Mycobacterium tuberculosis
[5] = THP-1 cell cytotoxicity, dose response, cytotoxicity control for non-replicating M. tuberculosis project (AID 489025); format: functional
[6] = HepG2 cell cytotoxicity, dose response, cytotoxicity control for non-replicating M. tuberculosis project (AID 489018); format: functional; conditions: Mycobacterium tuberculosis
[7] = Vero E6 cell cytotoxicity, dose response, cytotoxicity control for non-replicating M. tuberculosis project, secondary assay (AID 492998); format: functional, VeroE6; conditions: Vero C1008
cells = format: functional
[8] = target: T1, Voltage-gated N-type calcium channel alpha-1B subunit/Amyloid beta A4 precursor protein-binding family A member 1 (Homo sapiens, UniProt Q00975+Q02410); format: protein assay
[9] = target: T2, Mannose-6-phosphate isomerase (Homo sapiens, UniProt P34949); assay: MPI enzyme activity inhibition – biochemical, fluorescence intensity, coupled assay, primary screen (AID 1209)
T2 sequence (P34949 whole entry): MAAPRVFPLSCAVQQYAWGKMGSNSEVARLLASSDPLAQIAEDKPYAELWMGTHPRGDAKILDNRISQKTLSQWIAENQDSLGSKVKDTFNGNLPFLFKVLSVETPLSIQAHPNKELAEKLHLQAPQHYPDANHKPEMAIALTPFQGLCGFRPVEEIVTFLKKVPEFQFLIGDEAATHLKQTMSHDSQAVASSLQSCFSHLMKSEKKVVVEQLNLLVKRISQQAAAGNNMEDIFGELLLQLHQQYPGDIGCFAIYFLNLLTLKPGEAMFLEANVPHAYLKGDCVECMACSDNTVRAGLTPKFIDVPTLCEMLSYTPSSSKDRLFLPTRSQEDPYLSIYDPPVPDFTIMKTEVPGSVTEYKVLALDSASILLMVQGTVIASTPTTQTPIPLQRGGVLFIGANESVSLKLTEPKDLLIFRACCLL

[10] = target: T1, Voltage-gated N-type calcium channel alpha-1B subunit/Amyloid beta A4 precursor protein-binding family A member 1; format: protein assay; remark: listed apart in the source
[11] = target: DNA dC->dU-editing enzyme APOBEC-3A (Homo sapiens, UniProt P31941); assay: A3A deaminase inhibition for selectivity – biochemical, dose response (AID 504722); format: functional
[12] = target: Glucose-6-phosphate 1-dehydrogenase (Homo sapiens, UniProt P11413); assay: inhibition of Homo sapiens G6PD, dose series – biochemical, fluorescence, selectivity assay for P. falciparum G6PD inhibitor project, dose response (AID 504792); format: functional
Hexokinase HKDC1 = target: T3, Hexokinase HKDC1 (Homo sapiens, UniProt Q2TB90); assay: activation of HKDC1 glucose phosphorylation – biochemical, W721R variant, dose response (AID 504730); format: functional
T3 sequence (Q2TB90 whole entry): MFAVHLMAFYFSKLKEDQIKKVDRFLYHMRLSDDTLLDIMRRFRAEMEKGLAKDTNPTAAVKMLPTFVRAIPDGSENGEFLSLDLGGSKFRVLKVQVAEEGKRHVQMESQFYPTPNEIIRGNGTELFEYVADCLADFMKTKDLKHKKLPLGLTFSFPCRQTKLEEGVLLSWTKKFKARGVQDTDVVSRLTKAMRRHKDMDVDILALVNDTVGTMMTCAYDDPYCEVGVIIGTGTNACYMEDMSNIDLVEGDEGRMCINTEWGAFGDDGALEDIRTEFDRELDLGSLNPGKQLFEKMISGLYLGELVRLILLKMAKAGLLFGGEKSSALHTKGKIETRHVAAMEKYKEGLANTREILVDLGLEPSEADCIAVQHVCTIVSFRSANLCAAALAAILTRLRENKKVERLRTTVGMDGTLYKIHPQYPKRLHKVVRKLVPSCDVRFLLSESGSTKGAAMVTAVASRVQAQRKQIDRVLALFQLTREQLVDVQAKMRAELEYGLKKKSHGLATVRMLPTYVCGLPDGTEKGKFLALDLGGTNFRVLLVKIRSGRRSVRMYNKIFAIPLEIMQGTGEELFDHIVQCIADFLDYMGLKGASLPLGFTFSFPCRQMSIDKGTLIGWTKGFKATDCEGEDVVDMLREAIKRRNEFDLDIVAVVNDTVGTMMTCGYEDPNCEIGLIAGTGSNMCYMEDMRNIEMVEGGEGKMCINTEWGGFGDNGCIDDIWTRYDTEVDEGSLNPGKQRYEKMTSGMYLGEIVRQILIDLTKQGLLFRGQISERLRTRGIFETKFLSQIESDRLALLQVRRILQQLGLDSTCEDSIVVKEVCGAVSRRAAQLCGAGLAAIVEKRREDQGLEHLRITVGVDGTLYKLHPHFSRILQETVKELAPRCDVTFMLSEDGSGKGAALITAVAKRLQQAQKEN

[13] = target: Eukaryotic translation initiation factor 4E (Mus musculus, UniProt P63073); assay: blockers of eIF4G binding by eIF4E – biochemical, TR-FRET, dose response (AID 855); format: functional;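 note: potency for disrupting eIF4E binding to eIF4GI seen as loss of FRET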
[14] = target: DNA dC->dU-editing enzyme APOBEC-3G (Homo sapiens, UniProt Q9HC16); assay: Dose Response confirmation of small molecule APOBEC3G DNA Deaminase Inhibitors via a fluorescence-based single-stranded DNA deaminase assay. [Related pubchem assays (depositor defined):AID493012, AID493028]; format: functional
Hexokinase-1 = target: T4, Hexokinase-1 (Homo sapiens, UniProt P19367); assay: HK1 enzyme activation by HKDC1 hits – biochemical, selectivity assay for HKDC1 activator project, dose response (AID 504762); format: functional
T4 sequence (P19367 whole entry): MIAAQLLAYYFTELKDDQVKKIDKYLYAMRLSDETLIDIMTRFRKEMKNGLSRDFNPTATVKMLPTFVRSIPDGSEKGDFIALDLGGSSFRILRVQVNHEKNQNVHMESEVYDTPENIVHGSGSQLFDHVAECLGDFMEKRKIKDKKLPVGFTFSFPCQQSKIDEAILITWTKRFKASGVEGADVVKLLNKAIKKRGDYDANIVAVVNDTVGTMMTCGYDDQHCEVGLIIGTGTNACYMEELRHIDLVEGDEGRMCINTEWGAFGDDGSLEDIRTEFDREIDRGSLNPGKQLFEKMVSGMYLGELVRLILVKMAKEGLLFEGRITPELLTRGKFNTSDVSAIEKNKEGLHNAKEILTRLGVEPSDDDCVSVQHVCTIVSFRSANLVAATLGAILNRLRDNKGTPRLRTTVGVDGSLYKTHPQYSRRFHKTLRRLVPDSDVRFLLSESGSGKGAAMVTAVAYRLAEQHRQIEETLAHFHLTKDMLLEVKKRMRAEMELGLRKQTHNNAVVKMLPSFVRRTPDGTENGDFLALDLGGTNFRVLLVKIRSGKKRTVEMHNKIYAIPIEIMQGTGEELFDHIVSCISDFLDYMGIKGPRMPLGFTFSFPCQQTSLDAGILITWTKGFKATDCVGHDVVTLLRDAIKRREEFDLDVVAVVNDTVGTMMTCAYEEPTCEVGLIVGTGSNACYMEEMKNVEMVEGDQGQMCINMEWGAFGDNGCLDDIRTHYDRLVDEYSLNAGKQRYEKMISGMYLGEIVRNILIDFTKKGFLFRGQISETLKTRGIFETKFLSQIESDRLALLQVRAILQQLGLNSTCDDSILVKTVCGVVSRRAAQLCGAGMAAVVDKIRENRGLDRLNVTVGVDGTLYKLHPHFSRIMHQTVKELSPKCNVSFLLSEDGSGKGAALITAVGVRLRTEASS

[15] = target: T5, Low molecular weight phosphotyrosine protein phosphatase (Homo sapiens, UniProt P24666); format: functional; conditions: read-out: IC50_Mean;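 note: Dose-response confirmation assay measuring inhibition of LMPTP enzyme activity by fluorescence intensity read-out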
T5 sequence (P24666 whole entry): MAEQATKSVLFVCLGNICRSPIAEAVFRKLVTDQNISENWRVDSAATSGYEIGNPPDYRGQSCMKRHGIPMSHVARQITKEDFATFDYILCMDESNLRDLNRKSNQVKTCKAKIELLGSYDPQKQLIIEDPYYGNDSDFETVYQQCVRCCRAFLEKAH

Cytochrome P450 3A4 = Cytochrome P450 3A4 (Homo sapiens, UniProt P08684);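 note: CYP3A4 tested as one member of a cytochrome P450 panel screen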
X-box-binding protein 1 = X-box-binding protein 1 (Homo sapiens, UniProt P17861); format: functional, Cricetulus griseus;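 note: confirmatory dose-response counter-screen serving a CHOP assay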
Vero = assay: cells; format: functional; conditions: Chlorocebus sabaeus
[16] = Luminescence Cell-Based Dose Retest to Confirm Inhibitors of Cancer Stem Cells. [Related pubchem assays (depositor defined):AID2717, AID2721]; format: functional; conditions: Homo sapiens
INS1 = assay: INS-1E survival protection against cytokine death – cell-based, luminescence, retest, dose response (AID 449756); format: functional; conditions: Rattus norvegicus;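 note: cell death triggered by IL-1 beta plus TNF-alpha plus IFN-gamma mixture; protective hits raise ATP signal compared with cytokine alone wells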
[17] = reduction of Shn3 3'UTR-driven luciferase in osteoblasts – cell-based, Clone20 osteoblasts, firefly luciferase, cherry-picked, dose response (AID 624132); format: functional;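 note: firefly luciferase luminescence from reporter carrying the Shn3 3'UTR in osteoblasts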
[18] = loss of viability in HepG2 cells – cell-based, CellTiter-Glo, cherry-picked, cytotoxicity control for Shn3 inhibitor project, dose response (AID 624134); format: functional
[19] = non-specific 3'UTR reporter inhibition in Clone20-Shn3RL – cell-based, Renilla luciferase, cherry-picked, counter-screen for Shn3 inhibitor project, dose response (AID 624133); format: functional
Bcl-2-related protein A1 = target: T6, Bcl-2-related protein A1 (Mus musculus, UniProt Q07440); format: functional;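 note: confirmatory dose–response counterscreen on Bfl-1, used to check hits from a UBC13 polyubiquitin inhibitor campaign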
T6 sequence (Q07440 whole entry): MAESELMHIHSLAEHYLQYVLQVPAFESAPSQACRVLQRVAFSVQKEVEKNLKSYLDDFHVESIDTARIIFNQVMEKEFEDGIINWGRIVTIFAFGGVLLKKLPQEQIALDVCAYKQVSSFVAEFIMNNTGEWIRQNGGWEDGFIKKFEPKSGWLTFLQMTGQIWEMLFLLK

[20] = target: T7, Ubiquitin-conjugating enzyme E2 N (Homo sapiens, UniProt P61088); format: functional
T7 sequence (P61088 whole entry): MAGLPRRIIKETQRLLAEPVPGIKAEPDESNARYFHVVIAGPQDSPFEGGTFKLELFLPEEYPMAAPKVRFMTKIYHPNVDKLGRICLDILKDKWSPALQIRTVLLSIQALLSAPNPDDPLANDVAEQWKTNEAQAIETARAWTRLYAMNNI

[21] = target: T7, Ubiquitin-conjugating enzyme E2 N; format: functional; remark: listed apart in the source
[22] = target: Glyceraldehyde-3-phosphate dehydrogenase (Homo sapiens, UniProt P04406)
[23] = target: T8, Alkaline phosphatase, tissue-nonspecific isozyme (Homo sapiens, UniProt P05186); assay: potency against alkaline phosphatase TNAP – biochemical, luminescent, dose response, SAR follow-up (AID 1056)
T8 sequence (P05186 whole entry): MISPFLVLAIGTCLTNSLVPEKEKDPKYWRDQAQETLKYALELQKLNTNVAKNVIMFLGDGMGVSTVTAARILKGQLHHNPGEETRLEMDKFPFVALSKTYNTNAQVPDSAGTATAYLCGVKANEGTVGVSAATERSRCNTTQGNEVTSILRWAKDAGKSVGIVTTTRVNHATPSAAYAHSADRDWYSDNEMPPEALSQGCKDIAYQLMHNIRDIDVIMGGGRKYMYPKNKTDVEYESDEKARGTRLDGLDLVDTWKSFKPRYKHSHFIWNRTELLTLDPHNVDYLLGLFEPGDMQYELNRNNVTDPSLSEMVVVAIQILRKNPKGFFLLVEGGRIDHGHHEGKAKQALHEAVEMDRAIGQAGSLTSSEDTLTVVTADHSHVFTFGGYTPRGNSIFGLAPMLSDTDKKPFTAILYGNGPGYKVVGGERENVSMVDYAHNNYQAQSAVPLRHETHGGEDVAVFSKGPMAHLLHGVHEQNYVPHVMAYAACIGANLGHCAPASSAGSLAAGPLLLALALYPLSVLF

Sequence of X-box-binding protein 1 (P17861 whole entry): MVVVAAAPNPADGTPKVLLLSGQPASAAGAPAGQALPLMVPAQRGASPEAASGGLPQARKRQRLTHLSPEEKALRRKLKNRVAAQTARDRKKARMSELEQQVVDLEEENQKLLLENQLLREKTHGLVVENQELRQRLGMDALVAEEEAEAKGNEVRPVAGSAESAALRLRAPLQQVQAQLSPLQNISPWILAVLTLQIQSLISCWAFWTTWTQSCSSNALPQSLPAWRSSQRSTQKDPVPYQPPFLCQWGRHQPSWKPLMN
Sequence of Glyceraldehyde-3-phosphate dehydrogenase (P04406 whole entry): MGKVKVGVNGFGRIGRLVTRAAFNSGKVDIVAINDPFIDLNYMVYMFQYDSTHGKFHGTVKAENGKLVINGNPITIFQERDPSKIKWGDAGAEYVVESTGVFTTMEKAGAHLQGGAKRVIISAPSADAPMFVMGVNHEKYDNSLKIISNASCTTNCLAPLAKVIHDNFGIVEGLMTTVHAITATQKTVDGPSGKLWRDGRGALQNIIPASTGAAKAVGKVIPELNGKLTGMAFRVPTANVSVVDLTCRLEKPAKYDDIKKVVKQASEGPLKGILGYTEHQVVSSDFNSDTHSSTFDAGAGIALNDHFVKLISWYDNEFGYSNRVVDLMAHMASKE
T1 sequence (Q00975 whole entry): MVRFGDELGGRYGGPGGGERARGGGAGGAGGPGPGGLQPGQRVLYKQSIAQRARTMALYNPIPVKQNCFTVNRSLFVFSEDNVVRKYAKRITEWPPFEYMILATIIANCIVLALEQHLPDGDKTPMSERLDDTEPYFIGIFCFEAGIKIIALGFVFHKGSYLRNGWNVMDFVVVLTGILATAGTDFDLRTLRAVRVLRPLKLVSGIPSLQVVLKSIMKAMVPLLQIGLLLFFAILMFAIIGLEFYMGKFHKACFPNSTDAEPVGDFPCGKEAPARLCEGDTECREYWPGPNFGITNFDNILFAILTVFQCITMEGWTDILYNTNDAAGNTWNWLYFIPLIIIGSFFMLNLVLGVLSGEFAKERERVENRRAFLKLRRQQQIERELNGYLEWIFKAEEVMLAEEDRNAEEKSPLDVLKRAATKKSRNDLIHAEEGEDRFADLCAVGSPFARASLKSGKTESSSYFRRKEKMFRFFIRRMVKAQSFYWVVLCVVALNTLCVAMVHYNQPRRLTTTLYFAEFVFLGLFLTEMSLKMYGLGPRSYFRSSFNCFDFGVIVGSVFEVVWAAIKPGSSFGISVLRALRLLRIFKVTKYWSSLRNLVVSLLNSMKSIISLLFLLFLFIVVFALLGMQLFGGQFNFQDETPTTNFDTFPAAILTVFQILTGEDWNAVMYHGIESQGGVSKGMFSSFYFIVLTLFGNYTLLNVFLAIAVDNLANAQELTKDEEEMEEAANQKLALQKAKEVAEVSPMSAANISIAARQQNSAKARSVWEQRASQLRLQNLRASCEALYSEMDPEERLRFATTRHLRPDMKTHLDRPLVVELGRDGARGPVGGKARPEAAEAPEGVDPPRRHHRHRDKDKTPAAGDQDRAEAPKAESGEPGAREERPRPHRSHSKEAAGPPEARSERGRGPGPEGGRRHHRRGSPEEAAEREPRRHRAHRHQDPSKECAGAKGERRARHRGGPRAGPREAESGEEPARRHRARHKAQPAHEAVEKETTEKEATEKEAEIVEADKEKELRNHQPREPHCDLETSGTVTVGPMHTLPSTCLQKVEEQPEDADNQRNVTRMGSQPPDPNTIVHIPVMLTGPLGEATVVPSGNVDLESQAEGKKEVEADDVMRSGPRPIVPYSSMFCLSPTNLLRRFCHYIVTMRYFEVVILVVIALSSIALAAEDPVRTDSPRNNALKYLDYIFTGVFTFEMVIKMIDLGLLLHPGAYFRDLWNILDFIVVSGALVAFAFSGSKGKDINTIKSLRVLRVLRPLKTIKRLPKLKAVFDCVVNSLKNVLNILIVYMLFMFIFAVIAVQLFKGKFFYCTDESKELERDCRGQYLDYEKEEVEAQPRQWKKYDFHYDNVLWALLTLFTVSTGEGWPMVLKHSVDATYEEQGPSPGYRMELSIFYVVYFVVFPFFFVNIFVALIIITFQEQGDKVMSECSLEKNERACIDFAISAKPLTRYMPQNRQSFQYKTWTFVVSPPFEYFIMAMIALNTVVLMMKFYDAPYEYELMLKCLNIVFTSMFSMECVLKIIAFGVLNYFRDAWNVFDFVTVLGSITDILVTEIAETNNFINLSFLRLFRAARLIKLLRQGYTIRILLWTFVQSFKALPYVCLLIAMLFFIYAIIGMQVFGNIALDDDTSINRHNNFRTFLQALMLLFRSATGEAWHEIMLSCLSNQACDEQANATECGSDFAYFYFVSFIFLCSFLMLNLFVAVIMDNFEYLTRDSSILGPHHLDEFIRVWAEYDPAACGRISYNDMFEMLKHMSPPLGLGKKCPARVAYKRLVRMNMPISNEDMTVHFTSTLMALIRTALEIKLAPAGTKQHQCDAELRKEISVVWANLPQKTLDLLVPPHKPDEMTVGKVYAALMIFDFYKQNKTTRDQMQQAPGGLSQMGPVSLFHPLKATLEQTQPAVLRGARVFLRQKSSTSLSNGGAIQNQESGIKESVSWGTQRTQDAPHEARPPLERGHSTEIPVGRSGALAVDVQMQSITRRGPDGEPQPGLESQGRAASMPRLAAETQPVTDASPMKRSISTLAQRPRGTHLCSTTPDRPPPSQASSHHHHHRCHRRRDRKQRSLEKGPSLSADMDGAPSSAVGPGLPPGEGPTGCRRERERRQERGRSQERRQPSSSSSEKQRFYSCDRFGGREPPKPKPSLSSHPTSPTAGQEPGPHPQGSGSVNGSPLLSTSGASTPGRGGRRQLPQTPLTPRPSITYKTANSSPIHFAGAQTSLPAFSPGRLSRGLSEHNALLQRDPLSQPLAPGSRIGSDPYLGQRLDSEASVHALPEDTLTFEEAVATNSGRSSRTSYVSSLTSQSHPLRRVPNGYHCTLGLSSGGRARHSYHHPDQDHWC
T1 sequence (Q02410 whole entry): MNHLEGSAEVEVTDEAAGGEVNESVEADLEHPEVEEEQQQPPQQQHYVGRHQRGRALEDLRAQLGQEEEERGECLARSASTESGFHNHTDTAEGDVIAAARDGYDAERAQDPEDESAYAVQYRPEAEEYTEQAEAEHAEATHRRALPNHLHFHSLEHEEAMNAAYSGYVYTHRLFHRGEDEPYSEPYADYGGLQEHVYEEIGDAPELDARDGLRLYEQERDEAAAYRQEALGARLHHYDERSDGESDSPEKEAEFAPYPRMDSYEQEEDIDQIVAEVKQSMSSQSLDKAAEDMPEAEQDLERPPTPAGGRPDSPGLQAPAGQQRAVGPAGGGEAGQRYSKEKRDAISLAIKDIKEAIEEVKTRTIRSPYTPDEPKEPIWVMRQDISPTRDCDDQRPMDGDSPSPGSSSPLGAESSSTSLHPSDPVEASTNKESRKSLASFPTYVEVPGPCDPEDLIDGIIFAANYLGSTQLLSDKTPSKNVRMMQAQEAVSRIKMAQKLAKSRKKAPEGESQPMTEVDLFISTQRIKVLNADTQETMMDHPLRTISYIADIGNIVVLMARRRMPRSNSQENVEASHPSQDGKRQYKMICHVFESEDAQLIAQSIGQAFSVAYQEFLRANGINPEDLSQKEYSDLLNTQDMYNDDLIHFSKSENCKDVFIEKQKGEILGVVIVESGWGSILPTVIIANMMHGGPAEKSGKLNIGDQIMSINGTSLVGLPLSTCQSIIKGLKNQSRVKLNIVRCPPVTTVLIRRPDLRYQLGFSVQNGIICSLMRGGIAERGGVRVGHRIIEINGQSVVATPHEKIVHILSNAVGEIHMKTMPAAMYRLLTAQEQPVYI
Sequence of DNA dC->dU-editing enzyme APOBEC-3G (Q9HC16 whole entry): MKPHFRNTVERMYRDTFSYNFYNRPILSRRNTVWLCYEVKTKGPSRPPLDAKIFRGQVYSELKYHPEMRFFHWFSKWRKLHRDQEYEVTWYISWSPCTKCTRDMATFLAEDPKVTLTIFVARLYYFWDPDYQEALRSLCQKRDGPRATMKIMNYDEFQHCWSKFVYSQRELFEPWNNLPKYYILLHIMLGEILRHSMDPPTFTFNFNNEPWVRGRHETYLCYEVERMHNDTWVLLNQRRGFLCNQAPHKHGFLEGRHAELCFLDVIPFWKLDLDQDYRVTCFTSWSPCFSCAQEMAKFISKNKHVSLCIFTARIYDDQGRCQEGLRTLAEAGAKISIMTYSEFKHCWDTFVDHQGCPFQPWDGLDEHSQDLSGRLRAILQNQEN
Sequence of Eukaryotic translation initiation factor 4E (P63073 whole entry): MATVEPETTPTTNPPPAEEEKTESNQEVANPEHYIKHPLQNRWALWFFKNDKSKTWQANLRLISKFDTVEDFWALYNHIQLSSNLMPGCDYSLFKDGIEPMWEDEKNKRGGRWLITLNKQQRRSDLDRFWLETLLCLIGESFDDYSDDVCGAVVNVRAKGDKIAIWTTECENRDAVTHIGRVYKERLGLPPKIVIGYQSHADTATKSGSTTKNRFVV
Sequence of Cytochrome P450 3A4 (P08684 whole entry): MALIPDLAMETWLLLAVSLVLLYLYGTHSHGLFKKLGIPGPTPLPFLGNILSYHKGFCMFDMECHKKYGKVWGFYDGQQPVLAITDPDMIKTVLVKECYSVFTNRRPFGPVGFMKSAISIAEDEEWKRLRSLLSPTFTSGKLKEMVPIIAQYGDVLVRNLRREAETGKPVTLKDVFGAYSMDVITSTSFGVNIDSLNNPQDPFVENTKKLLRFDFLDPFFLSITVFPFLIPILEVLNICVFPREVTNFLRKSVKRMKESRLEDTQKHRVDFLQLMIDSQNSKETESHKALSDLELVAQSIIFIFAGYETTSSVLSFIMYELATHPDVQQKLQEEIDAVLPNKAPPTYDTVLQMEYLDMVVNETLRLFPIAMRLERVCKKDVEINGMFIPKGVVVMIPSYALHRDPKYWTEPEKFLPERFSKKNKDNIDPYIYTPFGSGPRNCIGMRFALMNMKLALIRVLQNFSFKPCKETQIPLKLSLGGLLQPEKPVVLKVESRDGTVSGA

Compound: CCCCCC(=O)N/N=C(\C)c1ccccn1
- EC50 [1]: 12.5 µM (active)
- EC50 [2]: 7.26 µM (active)
- EC50 [3]: 5.13 µM (active)
- CC50 [4]: 21.4 µM (active)
- CC50 [5]: 11.1 µM (active)
- CC50 [6]: > 20 µM (active)
- CC50 [7]: 13.3 µM (active)
- IC50 (cells): 10.3 µM (active)

Compound: COc1cc(/N=c2\ssnc2Cl)cc(OC)c1OC
- IC50 [8]: 10.8 µM (active)
- IC50 [9]: 4.76 µM (active)
- IC50 [10]: 5.22 µM (active)
- IC50 [11]: > 100 µM (inactive)
- IC50 [12]: 69.4 µM (inactive)
- EC50 (Hexokinase HKDC1): 56.9 µM (inactive)
- IC50 [13]: 20.4 µM (active)
- IC50 [14]: 7.2 µM (active)
- EC50 (Hexokinase-1): 55.3 µM (inactive)
- IC50 (cells): 43.6 µM (active)
- IC50 [15]: 80 µM (inactive)
- AC50 (Cytochrome P450 3A4): 31.6 µM (inconclusive)

Compound: COc1cc(OC)c(OC)cc1/C=N/Nc1[nH]cnc2c3ccccc3nc1-2
- Absolute IC50 (XBP1) (X-box-binding protein 1): 10 µM
- CC50 (Vero): > 25 µM (active)

Compound: FC(F)(F)c1nnc(-c2ccccc2)nc1Sc1ccc(Cl)cc1
- AC50 [16]: 4 µM (active)
- Absolute IC50 (XBP1) (X-box-binding protein 1): 10 µM
- AC50 (INS1): 9.75 µM (active)
- AC50 [17]: 14.7 µM (active)
- AC50 [18]: 31.4 µM (active)
- AC50 [19]: 21 µM (active)

Compound: Cc1cc(C2=NN=C(Nc3ccc(S(=O)(=O)N4CCOCC4)cc3)SC2)c(C)n1C
- EC50 (Hexokinase HKDC1): 24.7 µM (inactive)
- EC50 (Hexokinase-1): 46 µM (inactive)

Compound: C#CCOCCOCCOCCNc1nc(N2CCN(C(=O)CCCCCCCCCCNC(=O)[C@@H](CCSC)n3cc(CCO)nn3)CC2)nc(N2CCN(C(=O)CCCCCCCCCCNC(=O)[C@H](CCCN=C(N)N)n3cc(C[C@@H](C)CC)nn3)CC2)n1
- IC50 (Bcl-2-related protein A1): 3.08 µM (active)
- IC50 [20]: 5.55 µM (active)
- IC50 [21]: 3.03 µM (active)

Compound: COc1cc(Cl)ccc1S(=O)(=O)Nc1ccc2ccccc2c1
- IC50 [22]: > 100 µM (not active)
- IC50 [23]: > 100 µM (inactive)

Compound: Cc1nc(-c2ccc(C(F)(F)F)cc2)sc1C(=O)NN
- CC50 [5]: 20.7 µM (active)
- CC50 [6]: > 20 µM (active)
- IC50 (cells): 35.9 µM (active)

Compound: O=C(O)c1cc(-c2ccc(Cl)cc2)n[nH]1
- IC50 [22]: > 100 µM (not active)
- IC50 [23]: 6.14 µM (active)
